Measurements: the NIST ThermoML archive (doi:10.1016/j.jct.2012.06.030)
± gives the expanded uncertainty stated by the source.

Assay: excess molar enthalpy (molar enthalpy of mixing); xn = mol fraction of the nth substance listed
Conditions: 101 kPa, Liquid, isothermal titration calorimeter

CCCCCC[n+]1ccc2ccccc2c1.N#C[S-] [2-hexylisoquinolinium thiocyanate] + O
Conditions | excess molar enthalpy [kJ/mol]
298.15 K, x1 = 0.0916 | 0.137 ± 0.002
298.15 K, x1 = 0.0938 | 0.14 ± 0.002
298.15 K, x1 = 0.0961 | 0.144 ± 0.002
298.15 K, x1 = 0.0985 | 0.147 ± 0.002
298.15 K, x1 = 0.101 | 0.151 ± 0.002
298.15 K, x1 = 0.1036 | 0.154 ± 0.002
298.15 K, x1 = 0.1064 | 0.158 ± 0.003
298.15 K, x1 = 0.1093 | 0.162 ± 0.003
298.15 K, x1 = 0.1125 | 0.167 ± 0.003
298.15 K, x1 = 0.1157 | 0.171 ± 0.003
298.15 K, x1 = 0.1192 | 0.176 ± 0.003
298.15 K, x1 = 0.1229 | 0.182 ± 0.003
298.15 K, x1 = 0.1264 | 0.186 ± 0.003
298.15 K, x1 = 0.1301 | 0.192 ± 0.003
298.15 K, x1 = 0.134 | 0.197 ± 0.003
298.15 K, x1 = 0.1381 | 0.203 ± 0.003
298.15 K, x1 = 0.1426 | 0.21 ± 0.003
298.15 K, x1 = 0.1473 | 0.216 ± 0.003
298.15 K, x1 = 0.1523 | 0.223 ± 0.003
298.15 K, x1 = 0.1577 | 0.231 ± 0.003
298.15 K, x1 = 0.1635 | 0.239 ± 0.003
298.15 K, x1 = 0.1697 | 0.248 ± 0.004
298.15 K, x1 = 0.1764 | 0.258 ± 0.004
298.15 K, x1 = 0.1836 | 0.268 ± 0.004
298.15 K, x1 = 0.1915 | 0.279 ± 0.004
298.15 K, x1 = 0.2001 | 0.291 ± 0.004
298.15 K, x1 = 0.2095 | 0.304 ± 0.004
298.15 K, x1 = 0.2198 | 0.318 ± 0.004
298.15 K, x1 = 0.2312 | 0.334 ± 0.005
298.15 K, x1 = 0.2439 | 0.349 ± 0.005
298.15 K, x1 = 0.258 | 0.354 ± 0.005
298.15 K, x1 = 0.2738 | 0.348 ± 0.005
298.15 K, x1 = 0.2917 | 0.322 ± 0.004
298.15 K, x1 = 0.3095 | 0.289 ± 0.004
298.15 K, x1 = 0.3296 | 0.243 ± 0.004
298.15 K, x1 = 0.3525 | 0.188 ± 0.003
298.15 K, x1 = 0.3749 | 0.136 ± 0.002
298.15 K, x1 = 0.4002 | 0.0791 ± 0.0017
298.15 K, x1 = 0.424 | 0.0281 ± 0.0013
298.15 K, x1 = 0.4509 | -0.0257 ± 0.0013
298.15 K, x1 = 0.4749 | -0.0695 ± 0.0016
298.15 K, x1 = 0.5016 | -0.113 ± 0.002
298.15 K, x1 = 0.5315 | -0.155 ± 0.003
298.15 K, x1 = 0.5562 | -0.184 ± 0.003
298.15 K, x1 = 0.5833 | -0.209 ± 0.003
298.15 K, x1 = 0.6133 | -0.23 ± 0.003
298.15 K, x1 = 0.6464 | -0.245 ± 0.004
298.15 K, x1 = 0.6834 | -0.252 ± 0.004
298.15 K, x1 = 0.7102 | -0.25 ± 0.004
298.15 K, x1 = 0.7393 | -0.244 ± 0.004
298.15 K, x1 = 0.7708 | -0.231 ± 0.003
298.15 K, x1 = 0.8051 | -0.21 ± 0.003
298.15 K, x1 = 0.8229 | -0.197 ± 0.003
298.15 K, x1 = 0.8415 | -0.182 ± 0.003
298.15 K, x1 = 0.861 | -0.163 ± 0.003
298.15 K, x1 = 0.8815 | -0.143 ± 0.002
298.15 K, x1 = 0.9029 | -0.12 ± 0.002
298.15 K, x1 = 0.9253 | -0.094 ± 0.0018
298.15 K, x1 = 0.949 | -0.0652 ± 0.0015
298.15 K, x1 = 0.9738 | -0.0334 ± 0.0012
303.15 K, x1 = 0.0899 | 0.133 ± 0.002
303.15 K, x1 = 0.092 | 0.136 ± 0.002
303.15 K, x1 = 0.0942 | 0.139 ± 0.002
303.15 K, x1 = 0.0965 | 0.142 ± 0.002
303.15 K, x1 = 0.099 | 0.145 ± 0.002
303.15 K, x1 = 0.1016 | 0.149 ± 0.002
303.15 K, x1 = 0.1043 | 0.153 ± 0.002
303.15 K, x1 = 0.1071 | 0.156 ± 0.003
303.15 K, x1 = 0.1102 | 0.161 ± 0.003
303.15 K, x1 = 0.1134 | 0.165 ± 0.003
303.15 K, x1 = 0.1168 | 0.17 ± 0.003
303.15 K, x1 = 0.1204 | 0.175 ± 0.003
303.15 K, x1 = 0.1238 | 0.179 ± 0.003
303.15 K, x1 = 0.1274 | 0.184 ± 0.003
303.15 K, x1 = 0.1312 | 0.189 ± 0.003
303.15 K, x1 = 0.1352 | 0.195 ± 0.003
303.15 K, x1 = 0.1395 | 0.201 ± 0.003
303.15 K, x1 = 0.1441 | 0.207 ± 0.003
303.15 K, x1 = 0.1489 | 0.214 ± 0.003
303.15 K, x1 = 0.1542 | 0.221 ± 0.003
303.15 K, x1 = 0.1598 | 0.229 ± 0.003
303.15 K, x1 = 0.1658 | 0.237 ± 0.003
303.15 K, x1 = 0.1723 | 0.246 ± 0.004
303.15 K, x1 = 0.1793 | 0.256 ± 0.004
303.15 K, x1 = 0.187 | 0.266 ± 0.004
303.15 K, x1 = 0.1953 | 0.278 ± 0.004
303.15 K, x1 = 0.2044 | 0.29 ± 0.004
303.15 K, x1 = 0.2144 | 0.304 ± 0.004
303.15 K, x1 = 0.2254 | 0.313 ± 0.004
303.15 K, x1 = 0.2375 | 0.326 ± 0.004
